In US8076449B2, “Therapeutic agents of colivelin for neurodegenerative diseases” (Tomohiro Chiba, priority 2004, dated 2011):
Ends that are not written are not given here.

Assays:
[1] = tested on: F11 cells transformed with M146L-PS1; settings: as already reported; cited from earlier work
[2] = tested on: ChAT(+) neurons in the ventral gray column of ALS model mice; assay: Immunohistochemical count of ChAT(+) neurons in spinal cord sections from 120-day-old ALS model mice; type: in vivo, mouse; settings: spinal cord (L1-3) sections from 120-day-old mice
Description: Spinal cord (L1-3) sections from wild-type (n=3, FIG. 10A), control (saline-treated) (n=5, FIG. 10B), ADNF-treated (n=3, FIG. 10C), or colivelin-treated (n=12, FIG. 10D) mice were immunostained with an anti-ChAT antibody to count ChAT(+) neurons in the ventral gray column. The sections were prepared from 120-day-old mice (see FIG. 8d). The average number of ChAT(+) neurons per section was compared among the mice (FIG. 10E). Statistical analysis was conducted by one-way ANOVA, followed by Fischer's PLSD test (**p<0.01; *p<0.05).
The immunohistochemical analysis of neuroprotective effect was conducted using ALS model mice (n=12, FIG. 10D) administered with colivelin, in comparison to wild type (n=3, FIG. 10A), control (saline-treated) (n=5, FIG. 10B), and ADNF-treated (n=3, FIG. 10C) mice. Spinal cord (L1-3) sections from the mice in each group were immunostained with an anti-ChAT antibody to count ChAT(+) neurons in the ventral gray column (FIG. 9f). The sections were prepared from 120-day-old mice with motor function increased by colivelin and ADNF (see FIG. 8d)

[3] = tested on: ChAT(+) neurons in the ventral gray column of ALS model mice; assay: Immunohistochemical count of ChAT(+) neurons in spinal cord sections from dead ALS model mice; type: in vivo, mouse; settings: spinal cord (L1-3) sections from dead mice
Description: Spinal cord (L1-3) sections from wild-type (n=3, FIG. 9a), control (saline-treated) (n=5, FIG. 9b), ADNF-treated (n=3, FIG. 9c), AGA-C8R-HNG17-treated (n=14, FIG. 9d), or colivelin-treated (n=12, FIG. 9e) mice were immunostained with an anti-ChAT antibody to count ChAT(+) neurons in the ventral gray columns of the spinal cords. The sections were prepared from dead mice. The average number of ChAT(+) neurons per section was compared among the mice (FIG. 9f). Statistical analysis was conducted by one-way ANOVA, followed by Fischer's PLSD test (**p<0.01); and
The immunohistochemical analysis of neuroprotective effect was conducted using ALS model mice (n=12, FIG. 9e) administered with colivelin, in comparison to wild type (n=3, FIG. 9a), control (saline-treated) (n=5, FIG. 9b), A DNF-treated (n=3, FIG. 9c), and AGA-C8R-HNG17-treated (n=14, FIG. 9d) mice. Spinal cord (L1-3) sections from dead mice in each group were immunostained with an anti-ChAT antibody to count ChAT(+) neurons in the ventral gray column (FIG. 9f).

[4] = tested on: CD-1 mice icv-administered with Aβ (25-35); assay: Y-maze spatial working memory impairment induced by Aβ (25-35), icv administration; type: in vivo, mouse; settings: 1 nmol colivelin icv, 10 nmol Aβ (25-35) icv, 3 weeks after Aβ
Description: The icv administration of Aβ peptides has been reported to induce spatial working memory impairment. […] In this test, the in vivo neuroprotective effect of colivelin on Aβ toxicity was examined.
Male CD-1 mice at 3 months of age were icy-administered once every three weeks with 1 nmol colivelin together with 3 μl of saline or 3 μl of saline alone into the left lateral ventricles. After 1 hour from the first administration of colivelin, 5 μl of saline together with 10 nmol Aβ (25-35) or 5 μl of saline alone was administered to the right lateral ventricles. After 3 weeks from the Aβ peptide administration, each mouse was examined for spatial working memory in a Y-maze. The Y-maze was made of three gray plastic arms (40 cm long, 12 cm high, 3 cm wide at the bottom, and 10 cm wide at the top) connected to each other at angles of 120°. The mice were individually placed at the end of one arm of the Y-maze and allowed to freely explore the arms for 8 minutes. Items examined were (1) frequency of entry into each arm, (2) total arm entry times, (3) spontaneous alternation percentage, and (4) events. The spontaneous alternation percentage was defined as a ratio of the arm choices that differed from the previous two choices (“successful choices”) to total choices during the run (“total entry minus two”, because the first two choices could not be evaluated for success or failure during the run). […]

Sequence	suppression of cell death caused by M146L-PS1 [1]	number of ChAT(+) neurons per section in the spinal cord [2]	number of ChAT(+) neurons per section in the spinal cord [3]	spontaneous alternation percentage (SA %) in Y-maze [4]
SALLRSIPA [ADNF, reference compound]	does not suppress	–	–	–
SALLRSIPAPAGASRLLLLTGEIDLP [colivelin]	–	approximately 32	approximately 19	70%
